{"source": "patent US4857507A", "about": "“Angiotensinogen analogs” (Abbott Laboratories, priority 1987, dated 1989)", "biological_target": "T1, human renal renin (Homo sapiens, UniProt P00797)", "T1 construct": "human renal renin, free from acid proteolytic activity; from tissue; host or cells: human kidney (from the word 'renal')", "T1 sequence (P00797 67-406)": "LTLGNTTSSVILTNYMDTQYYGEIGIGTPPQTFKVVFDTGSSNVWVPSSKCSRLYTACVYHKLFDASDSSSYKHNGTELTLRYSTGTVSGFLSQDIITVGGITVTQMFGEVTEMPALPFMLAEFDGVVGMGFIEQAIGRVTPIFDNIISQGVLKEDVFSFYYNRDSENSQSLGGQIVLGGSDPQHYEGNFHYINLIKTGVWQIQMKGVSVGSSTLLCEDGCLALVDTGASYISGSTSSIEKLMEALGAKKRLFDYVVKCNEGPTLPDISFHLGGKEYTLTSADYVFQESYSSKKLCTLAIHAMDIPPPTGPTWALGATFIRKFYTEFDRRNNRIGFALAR", "experiment": "inhibition of human renal renin in vitro, angiotensin I formed measured by radioimmunoassay", "assay_type": "biochemical", "details": "human renal renin with human renin substrate (angiotensinogen), 37° C., pH 6.0", "protocol": "At the end of the incubation, the amount of angiotensin I formed is measured by radioimmunoassay and the molor concentration required to cause 50% inhibition, expressed as the IC50, is calculated.", "data": [{"smiles": "CC(C)CCS(=O)(=O)CC[C@H](O)[C@H](CC(C)C)NC(=O)[C@H](C)NC(=O)[C@H](Cc1ccccc1)NC(=O)OC(C)(C)C", "note": "[Example 19, Boc-Phe-Ala amide of (3S,4S)-4-amino-3-hydroxy-1-isoamylsulfonyl-6-methylheptane]", "values": [{"measurement": "IC50", "value": 2500, "unit": "nM"}]}]}
